Source: patent US10385014B2, “Acyloxyalkyl carbamate prodrugs, methods of synthesis and use” (ARBOR PHARMACEUTICALS, LLC, priority 2003, dated 2019)

Tests used:
[1] = Chemical stability of prodrugs in aqueous buffers; format: physicochemical
Method: (§1) The stabilities of prodrugs were evaluated in one or more in vitro systems using a variety of tissue preparations following methods known in the art. The chemical stability of prodrugs in aqueous buffers at pH's of 2.0, 7.4 and 8.0 were also measured. […] Each preparation was incubated with test compound at 37° C. for one hour. Aliquots (50 μL) were removed at 0, 30, and 60 min and quenched with 0.1% trifluoroacetic acid in acetonitrile. Samples were then centrifuged and analyzed by LC/MS/MS (see Example 86 below for method details).

[2] = Prodrug stability in rat liver S9; format: in vitro ADME; conditions: Rat Liver S9 (0.5 mg/mL), 2.0 μM, NADPH, 37° C.
Method: as §1

[3] = Prodrug stability in human liver S9; format: in vitro ADME; conditions: Human Liver S9 (0.5 mg/mL), 2.0 μM, NADPH, 37° C.
Method: as §1

[4] = Caco-2 homogenate S9 stability; format: in vitro ADME; conditions: Caco-2 S9 (0.5 mg protein per mL), 5 μM, 37° C.
Method: Caco-2 Homogenate S9 Stability: Caco-2 cells were grown for 21 days prior to harvesting. Culture medium was removed and cell monolayers were rinsed and scraped off into ice-cold 10 mM sodium phosphate/0.15 M potassium chloride, pH 7.4. Cells were lysed by sonication at 4° C. using a probe sonicator. Lysed cells were then transferred into 1.5 mL centrifuge vials and centrifuged at 9000 g for 20 min at 4° C. The resulting supernatant (Caco-2 cell homogenate S9 fraction) was aliquoted into 0.5 mL vials and stored at −80° C. until used.
For stability studies, prodrug (5 μM) was incubated in Caco-2 homogenate S9 fraction (0.5 mg protein per mL) for 60 min at 37° C. Concentrations of intact prodrug and released baclofen were determined at zero time and 60 minutes using LC/MS/MS.

[5] = system: pancreatin; test: Pancreatin stability; format: in vitro ADME, porcine; conditions: 1% (w/v) pancreatin, 5 μM, pH 7.5, 37° C.
Method: Pancreatin Stability: Stability studies were conducted by incubating prodrug (5 μM) with 1% (w/v) pancreatin (Sigma, P-1625, from porcine pancreas) in 0.025 M Tris buffer containing 0.5 M NaCl (pH 7.5) at 37° C. for 60 min. The reaction was stopped by addition of 2 volumes of methanol. After centrifugation at 14,000 rpm for […], the supernatant was removed and analyzed by LC/MS/MS.

[6] = Prodrug stability in rat plasma in vitro; format: in vitro ADME; conditions: 2.0 μM, 37° C.
Method: as §1

[7] = Prodrug stability in human plasma in vitro; format: in vitro ADME; conditions: 2.0 μM, 37° C.
Method: as §1

Compound	% of Baclofen Released after 60 min ([1]; aqueous buffer pH 2.0, 37° C.)	% of Baclofen Released after 60 min ([1]; aqueous buffer pH 7.4, 37° C.)	% of Baclofen Released after 60 min ([1]; aqueous buffer pH 8.0, 37° C.)	% of Prodrug Remaining after 60 min ([1]; aqueous buffer pH 8.0, 37° C.)	% of Prodrug Remaining after 60 min [2]	% of Prodrug Remaining after 60 min [3]	% of Prodrug Remaining after 60 min [4]	% of Prodrug Remaining after 60 min [5]	% of Prodrug Remaining after 60 min ([1]; aqueous buffer pH 2.0, 37° C.)	% of Prodrug Remaining after 60 min ([1]; aqueous buffer pH 7.4, 37° C.)	% of Baclofen Released after 60 min [6]	% of Baclofen Released after 60 min [7]	% of Baclofen Released after 60 min [4]	% of Prodrug Remaining after 60 min [6]	% of Baclofen Released after 60 min [5]	% of Baclofen Released after 60 min [2]	% of Baclofen Released after 60 min [3]
O=C([O-])C[C@@H](CNC(=O)OCOC(=O)C1CCCCC1)c1ccc(Cl)cc1.[Na+] [(14), Sodium 4-[(Cyclohexanecarboxymethoxy)carbonylamino]-(3R)-(4-chlorophenyl)-butanoate]	1%	1%	2%	102%	2%	2%	2%	2%	–	–	–	–	–	–	–	–	–
CC(C)(C)C(=O)OCOC(=O)NC[C@H](CC(=O)[O-])c1ccc(Cl)cc1.[Na+] [(20), Sodium 4-[(Pivaloyloxymethoxy)carbonylamino]-(3R)-(4-chlorophenyl)-butanoate]	0%	0%	0%	–	–	1%	1%	–	100%	100%	8%	9%	100%	–	–	–	–
CC(C)C(=O)OC(OC(=O)NC[C@H](CC(=O)[O-])c1ccc(Cl)cc1)C(C)C.[Na+] (stereo partly drawn) [(25), Sodium 4-[(1-Isobutanoyloxyisobutoxy)carbonylamino]-(3R)-(4-chlorophenyl)-butanoate]	0%	0%	0%	100%	1%	4%	2%	–	–	–	–	4%	–	5%	–	–	–
CCCC(=O)OC(OC(=O)NC[C@H](CC(=O)[O-])c1ccc(Cl)cc1)C(C)C.[Na+] (stereo partly drawn) [(27), Sodium 4-[(1-Butanoyloxyisobutoxy)carbonylamino]-(3R)-(4-chlorophenyl)-butanoate]	0%	0%	1%	–	0%	8%	–	–	–	–	–	12%	–	–	9%	–	–
CC(C)C(=O)O[C@H](C)OC(=O)NC[C@H](CC(=O)[O-])c1ccc(Cl)cc1.[Na+] [(34), Sodium 4-{[(1S)-Isobutanoyloxyethoxy]carbonylamino}-(3R)-(4-chlorophenyl)-butanoate]	0%	0%	0%	100%	1%	3%	2%	–	–	100%	–	2%	100%	–	18%	100%	100%
CC(C)C(OC(=O)NC[C@H](CC(=O)[O-])c1ccc(Cl)cc1)OC(=O)C(C)(C)C.[Na+] (stereo partly drawn) [(43), Sodium 4-[(1-Pivaloyloxyisobutoxy)carbonylamino]-(3R)-(4-chlorophenyl)-butanoate]	0%	0%	0%	–	3%	–	–	–	–	–	–	2%	–	–	4%	–	–
CCOC(C)(OCC)C(=O)OCOC(=O)NC[C@H](CC(=O)[O-])c1ccc(Cl)cc1.[Na+] [(51), Sodium 4-[(2,2-Diethoxypropanoyloxymethoxy)carbonylamino]-(3R)-(4-chlorophenyl)-butanoate]	0%	2%	9%	–	2%	6%	3%	–	–	–	–	–	100%	–	50%	–	91%
CC(C)CC(=O)OCOC(=O)NC[C@H](CC(=O)[O-])c1ccc(Cl)cc1.[Na+] [(59), Sodium 4-[(3-Methylbutanoyloxymethoxy)carbonylamino]-(3R)-(4-chlorophenyl)-butanoate]	0%	1%	2%	–	2%	1%	3%	–	–	103%	–	–	–	2%	–	85%	–
CCCC(=O)OC(OC(=O)NC[C@H](CC(=O)[O-])c1ccc(Cl)cc1)C1CCCCC1.[Na+] (stereo partly drawn) [(85), Sodium 4-[(1-Butanoyloxy-1-cyclohexylmethoxy)carbonylamino]-(3R)-(4-chlorophenyl)-butanoate]	0%	0%	0%	–	2%	2%	4%	–	–	–	–	4%	82%	82%	–	–	–
CCC[C@H](OC(=O)NC[C@H](CC(=O)[O-])c1ccc(Cl)cc1)OC(=O)C(C)C.[Na+] [(91), Sodium 4-{[(1S)-Isobutanoyloxybutoxy]carbonylamino}-(3R)-(4-chlorophenyl)-butanoate]	0%	0%	1%	–	–	1%	6%	–	–	–	–	2%	–	–	78%	–	–
CC(C)C(=O)O[C@@H](OC(=O)NC[C@H](CC(=O)[O-])c1ccc(Cl)cc1)C(C)C.[Na+] [(92), Sodium 4-{[(1S)-Isobutanoyloxyisobutoxy]carbonylamino}-(3R)-(4-chlorophenyl)-butanoate]	0%	0%	1%	–	6%	4%	–	–	–	–	–	1%	–	–	7%	–	80%
CC(C)C(=O)O[C@H](OC(=O)NC[C@H](CC(=O)[O-])c1ccc(Cl)cc1)C(C)C.[Na+] [(100), Sodium 4-{[(1R)-Isobutanoyloxyisobutoxy]carbonylamino}-(3R)-(4-chlorophenyl)-butanoate]	0%	0%	0%	–	3%	1%	7%	–	–	–	–	3%	–	9%	–	–	–
CC(C)C(=O)O[C@@H](OC(=O)NC[C@H](CC(=O)O)c1ccc(Cl)cc1)C(C)C [(104)]	0%	0%	0%	100%	3%	3%	–	90%	–	100%	–	2%	–	–	6%	–	97%
